Read-outs that look alike come from different tables or passages of the source.
System: 280 human cancer cell lines
Assay: OncoPanel cell proliferation assay (10-day)
Format: cell-based
Conditions: for EC50: read-out: Cell Count EC50; for IC50: read-out: Cell Count IC50
[1] = Homo sapiens, 22Rv1, 22Rv1, Prostate
[2] = Homo sapiens, 786-0, 786-O, Kidney
[3] = Homo sapiens, A7, Skin (Melanoma)
[4] = Homo sapiens, A101D, Skin (Melanoma)
[5] = Homo sapiens, A 172, A172, CNS - Glioma
[6] = Homo sapiens, A253, A-253, Head and Neck
[7] = Homo sapiens, A388, Head and Neck
[8] = Homo sapiens, A498, A498, Kidney
[9] = Homo sapiens, A673, A-673, Soft Tissue - Sarcoma
[10] = Homo sapiens, A704, A-704, Kidney
[11] = Homo sapiens, A-375, A375, Skin (Melanoma)
[12] = Homo sapiens, A-427, A427, Lung - NSCLC
[13] = Homo sapiens, A-431, A431, Head and Neck
[14] = Homo sapiens, AN3-CA, AN3 CA, Female GU - Uterus
[15] = Homo sapiens, ARH-77, ARH-77, Myeloma
[16] = Homo sapiens, ASPC1, AsPC-1, Pancreas
[17] = Homo sapiens, AU565, AU565, Breast
[18] = Homo sapiens, BCP-1, BCP-1, Lymphoma
[19] = Homo sapiens, BE(2)-C, BE(2)C, CNS - Neuroblastoma
[20] = Homo sapiens, BFTC-905, BFTC-905, Bladder
[21] = Homo sapiens, BHT-101, BHT-101, Endocrine - Thyroid
[22] = Homo sapiens, BM-1604, BM-1604, Prostate
[23] = Homo sapiens, BPH-1, BPH1, Prostate
[24] = Homo sapiens, BT-20, BT20, Breast

Compound: CC(C)=CCC[C@@H]1C(O)Oc2c(C)cc(O)c3c2[C@H]1CC[C@H]3C (stereo partly shown) [Compound 2, 5,18-epoxyserrulat-14-en-8,18-diol]
- Number of cell types, GI Activity Potent (GI50 range 0.03-0.099 μM, of 280 cell types): 1
- Number of cell types, GI Activity moderately potent (GI50 range 0.1-0.99 μM, of 280 cell types): 1
- Number of cell types, GI Activity Strong (GI50 range 1-2.99 μM, of 280 cell types): 8
- Number of cell types, GI Activity moderately strong (GI50 range 3-9.99 μM, of 280 cell types): 110
- Number of cell types, GI Activity weak (GI50 range 10-30.00 μM, of 280 cell types): 118
- Number of cell types, GI Activity very weak (GI50 range >30 μM, of 280 cell types): 42
- GI50 (Homo sapiens, 10 cell lines with potent to strong activity, read-out: GI50): 0.06 to 2.96 µM
- EC50 [1]: 11.4 µM
- GI50 (Homo sapiens, 22Rv1, 22Rv1, Prostate, read-out: Cell Count GI50): 11.3 µM
- IC50 [1]: 11.4 µM
- EC50 (Homo sapiens, 647-V, Bladder): 11.3 µM
- GI50 (Homo sapiens, 647-V, Bladder, read-out: Cell Count GI50): 11.2 µM
- IC50 (Homo sapiens, 647-V, Bladder): 11.3 µM
- EC50 (Homo sapiens, 769-P, Kidney): 6.95 µM
- GI50 (Homo sapiens, 769-P, Kidney, read-out: Cell Count GI50): 6.94 µM
- IC50 (Homo sapiens, 769-P, Kidney): 6.95 µM
- EC50 [2]: 27.9 µM
- GI50 (Homo sapiens, 786-0, 786-O, Kidney, read-out: Cell Count GI50): 27.9 µM
- IC50 [2]: 27.9 µM
- EC50 (Homo sapiens, 5637, Bladder): > 30 µM
- GI50 (Homo sapiens, 5637, Bladder, read-out: Cell Count GI50): > 30 µM
- IC50 (Homo sapiens, 5637, Bladder): > 30 µM
- EC50 [3]: 5.54 µM
- GI50 (Homo sapiens, A7, Skin (Melanoma), read-out: Cell Count GI50): 5.6 µM
- IC50 [3]: 5.63 µM
- EC50 [4]: > 30 µM
- GI50 (Homo sapiens, A101D, Skin (Melanoma), read-out: Cell Count GI50): > 30 µM
- IC50 [4]: > 30 µM
- EC50 [5]: 9.02 µM
- GI50 (Homo sapiens, A 172, A172, CNS - Glioma, read-out: Cell Count GI50): 8.93 µM
- IC50 [5]: 9.02 µM
- EC50 [6]: 28.5 µM
- GI50 (Homo sapiens, A253, A-253, Head and Neck, read-out: Cell Count GI50): 28.7 µM
- IC50 [6]: 28.7 µM
- EC50 [7]: 13.5 µM
- GI50 (Homo sapiens, A388, Head and Neck, read-out: Cell Count GI50): 13.4 µM
- IC50 [7]: 13.5 µM
- EC50 [8]: 13.3 µM
- GI50 (Homo sapiens, A498, A498, Kidney, read-out: Cell Count GI50): 13.2 µM
- IC50 [8]: 13.3 µM
- EC50 (Homo sapiens, A549, A549, Lung - NSCLC): 22 µM
- GI50 (Homo sapiens, A549, A549, Lung - NSCLC, read-out: Cell Count GI50): 21.9 µM
- EC50 [9]: 10.8 µM
- GI50 (Homo sapiens, A673, A-673, Soft Tissue - Sarcoma, read-out: Cell Count GI50): 11.1 µM
- IC50 [9]: 11.1 µM
- EC50 [10]: > 30 µM
- GI50 (Homo sapiens, A704, A-704, Kidney, read-out: Cell Count GI50): > 30 µM
- IC50 [10]: > 30 µM
- EC50 [11]: 6.45 µM
- GI50 (Homo sapiens, A-375, A375, Skin (Melanoma), read-out: Cell Count GI50): 6.44 µM
- IC50 [11]: 6.45 µM
- EC50 [12]: 11.2 µM
- GI50 (Homo sapiens, A-427, A427, Lung - NSCLC, read-out: Cell Count GI50): 11.2 µM
- IC50 [12]: 11.2 µM
- EC50 [13]: > 30 µM
- GI50 (Homo sapiens, A-431, A431, Head and Neck, read-out: Cell Count GI50): > 30 µM
- IC50 [13]: > 30 µM
- EC50 (Homo sapiens, ACHN, Kidney): 8.79 µM
- GI50 (Homo sapiens, ACHN, Kidney, read-out: Cell Count GI50): 8.76 µM
- IC50 (Homo sapiens, ACHN, Kidney): 8.79 µM
- EC50 (Homo sapiens, AGS, Stomach): 4.69 µM
- GI50 (Homo sapiens, AGS, Stomach, read-out: Cell Count GI50): 4.69 µM
- IC50 (Homo sapiens, AGS, Stomach): 4.69 µM
- EC50 [14]: 11.3 µM
- GI50 (Homo sapiens, AN3-CA, AN3 CA, Female GU - Uterus, read-out: Cell Count GI50): 11.1 µM
- IC50 [14]: 11.3 µM
- EC50 [15]: 9.5 µM
- GI50 (Homo sapiens, ARH-77, ARH-77, Myeloma, read-out: Cell Count GI50): 9.57 µM
- IC50 [15]: 9.6 µM
- EC50 [16]: 14.1 µM
- GI50 (Homo sapiens, ASPC1, AsPC-1, Pancreas, read-out: Cell Count GI50): 13.8 µM
- IC50 [16]: 14.1 µM
- EC50 [17]: 6.4 µM
- GI50 (Homo sapiens, AU565, AU565, Breast, read-out: Cell Count GI50): 6.29 µM
- IC50 [17]: 6.4 µM
- EC50 (Homo sapiens, BC-1, Lymphoma): 7.95 µM
- GI50 (Homo sapiens, BC-1, Lymphoma, read-out: Cell Count GI50): 7.93 µM
- IC50 (Homo sapiens, BC-1, Lymphoma): 7.95 µM
- EC50 [18]: 8.48 µM
- GI50 (Homo sapiens, BCP-1, BCP-1, Lymphoma, read-out: Cell Count GI50): 8.4 µM
- IC50 [18]: 8.48 µM
- EC50 [19]: 6.91 µM
- GI50 (Homo sapiens, BE(2)-C, BE(2)C, CNS - Neuroblastoma, read-out: Cell Count GI50): 7.48 µM
- IC50 [19]: 7.52 µM
- EC50 [20]: 8.03 µM
- GI50 (Homo sapiens, BFTC-905, BFTC-905, Bladder, read-out: Cell Count GI50): 8.01 µM
- IC50 [20]: 8.03 µM
- EC50 [21]: 14 µM
- GI50 (Homo sapiens, BHT-101, BHT-101, Endocrine - Thyroid, read-out: Cell Count GI50): 13.9 µM
- IC50 [21]: 14 µM
- EC50 [22]: 19.1 µM
- GI50 (Homo sapiens, BM-1604, BM-1604, Prostate, read-out: Cell Count GI50): 18.9 µM
- IC50 [22]: 19.1 µM
- EC50 [23]: > 30 µM
- GI50 (Homo sapiens, BPH-1, BPH1, Prostate, read-out: Cell Count GI50): > 30 µM
- IC50 [23]: > 30 µM
- EC50 [24]: 12.2 µM
- GI50 (Homo sapiens, BT-20, BT20, Breast, read-out: Cell Count GI50): 12.3 µM
- IC50 [24]: 12.7 µM
- EC50 (Homo sapiens, BT-474, BT474, Breast): > 30 µM

Source: patent US11331299B2, “Medicinal use of serrulatane diterpenes” (The University of Sydney, priority 2016, dated 2022)
